# Test results as given in patent US20220053796A1, “COMPOSITION FOR SUPPORTING ANIMAL WITH CANCER” (MARS, INCORPORATED, priority 2018, published 2022).
# Structures can show the parent of a compound that is named as a salt. Where two headings read alike, the source gives them in different places.
# Tests used:
# Format in all cases: cell-based, canine
# HMPOS = experiment: ATPlite proliferation assay; conditions: Canis lupus familiaris, 72 h
# Description: (§1) The different cancer cell lines were plated at the optimal number of cells per well in 90 μL of appropriate medium/well in flat-bottom microtitration 96-well plates. Plates were incubated at 37° C. for 24 hours before treatment in drug free culture medium. After a first dilution process, 10 μl of the test substances (single) were added on plate containing cells 24h after plating. Tumor cell lines were incubated for 72 h at 37° C. under 5% CO2 with 9 concentrations of each natural extract in 1:2 dilution steps. Top dose was 100 μg/ml for each plant extract and 1 μM for doxorubicin. Each concentration was tested in triplicates. Dilutions of each test substance as well as distribution to plates containing cells were performed manually. At least 2 independent experiments were performed for each plant extract. Control cells were treated with vehicles alone. […]
# (§2) At the end of treatments, the cytotoxic activity of tested substances was evaluated by ATP-Lite assay (Ref. 6016949, Perkin-Elmer, and Batch 69-12172). […] This ATP level is quantified by the luminescence emitted by the firefly luciferase, through an ATP-dependent reaction. […] After, the plate was left for ten minutes in the dark and luminescence was measured as LV (Luminescence Value).
# Chou-Tallalay CI corresponds to the combination indexes calculated using the appropriate algorithms. […]
# CF41.Mg cell line = experiment: ATPlite proliferation assay; conditions: Canis lupus familiaris, 72 h
# Description: as §1, §2
# CMT-12 cancer cell line = experiment: MTT proliferation assay; conditions: Canis lupus familiaris
# Description: (§3) Cells were plated at a density of 4×10^3 cells per well on 96-well tissue culture-treated flat bottom plates and incubated overnight in complete medium. Cells were treated the following day with DMSO control or extract using a twofold serial dilution for 8 final concentrations ranging from […] to 100 μg mL-1 for 48 h to assess all extracts for potential effectiveness at reducing cellular proliferation. To quantify cellular proliferation, MTT dye assays were performed by adding 30 μL of MTT dye (5 mg mL-1 in phosphate-buffered saline solution) to each well and incubating at 37° C. for 1 h. Media were then aspirated and the cells were solubilized in 200 μL of isopropanol. The optical density of each well was analyzed on a spectrophotometric plate reader (Epoch; Biotek, Winooski, Vt., USA) at a wavelength of 570 nm.
# (§4) Synergy between extracts was examined using combinations of two extracts at six concentrations: 0.8, 1.7, 3.1, 6.3, 12.5, or 25 μg mL-1. The percent proliferating cells of control for each treatment was pooled from all experiments and is reported as mean f standard error of the mean.
# (§5) Raw data from proliferation assays (optical density of each well) were normalized to the vehicle alone treatment for individual assays, considered to represent 100% proliferating cells (single or combined treatment). The % proliferating cells was then averaged across each replicate. The IC50 for each extract was then calculated across experiments by Probit analysis. The compound interactions were calculated by multiple drug effect analysis using CalcuSyn software (v.2.11; Biosoft, Cambridge, GB, United Kingdom).
# D17 cancer cell line = experiment: MTT proliferation assay; conditions: Canis lupus familiaris
# Description: as §3, §4, §5
# C2 cancer cell line = experiment: MTT proliferation assay
# Description: as §3, §4, §5
# [1] = read-out: chemotherapy IC50 (mass concentration in brackets)
IC50 (CMT-12 cancer cell line; read-out: chemotherapy IC50) [µM],IC50 (CMT-12 cancer cell line; [1]) [mg/L],IC50 (D17 cancer cell line; read-out: chemotherapy IC50) [µM],IC50 (D17 cancer cell line; [1]) [mg/L],Molecule,IC50 (HMPOS) [µM],IC50 (CF41.Mg cell line) [µM],chemotherapy IC50 (mass concentration in brackets) (C2 cancer cell line),IC50 (C2 cancer cell line; read-out: chemotherapy IC50) [µM]
0.3,0.163,0.5,0.272,COc1cccc2c1C(=O)c1c(O)c3c(c(O)c1C2=O)C[C@@](O)(C(=O)CO)C[C@@H]3O[C@H]1C[C@H](N)[C@H](O)[C@H](C)O1 [doxorubicin hydrochloride],0.011,0.375 ± 0.361,–,–
–,–,–,–,toceranib phosphate,–,–,nM (6.2 ng mL^−1),0.0125
